Source: the supplement of paper PMC10307832

How the values were obtained:
Test in all cases: relative viability (nuclei count vs DMSO), 5 days (fraction); higher = more cells survive
BEN = test system: BEN
Outline: (§1)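 One day after seeding in 1536-well plates, lung cancer cell lines were dosed by pin tool. Dosing was either single-drug or a fixed anchor-drug dose plus five library-drug doses (not always all listed) in √10 steps. After 5 days, nuclei were stained in one fix-and-stain step and counted on 4× images, and relative viability is the nuclei count of treated wells over that of vehicle wells, given as the median of duplicate plates.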

HCC-827 = test system: HCC-827
Outline: as §1

LK-2 = test system: LK-2
Outline: as §1

NCI-H1650 = test system: NCI-H1650
Outline: as §1

NCI-H1792 = test system: NCI-H1792
Outline: as §1

SW 1573 = test system: SW 1573
Outline: as §1

LOU-NH91 = test system: LOU-NH91
Outline: as §1

COR-L 105 = test system: COR-L 105
Outline: as §1

SK-MES-1 = test system: SK-MES-1
Outline: as §1

NCI-H2126 = test system: NCI-H2126
Outline: as §1

LU99A = test system: LU99A
Outline: as §1

HCC-78 = test system: HCC-78
Outline: as §1

Question: Which results are given for `O=C(O)CCCCC(CCSCc1ccccc1)SCc1ccccc1` (configuration not stated) [CPI-613] + COc1cccc2cc(-c3nc([C@H]4CC[C@H](C(=O)O)CC4)n4ncnc(N)c34)[nH]c12 [OSI-027] (partner 0.5 µM)?
Answer: relative viability (BEN; first compound 5 µM): 0.289; relative viability (BEN; first compound 15.81 µM): 0.298; relative viability (BEN; first compound 50 µM): 0.304; relative viability (BEN; first compound 158.11 µM): 0.265; relative viability (BEN; first compound 500 µM): 0.28; relative viability (HCC-827; first compound 5 µM): 0.745; relative viability (HCC-827; first compound 15.81 µM): 0.717; relative viability (HCC-827; first compound 50 µM): 0.673; relative viability (HCC-827; first compound 158.11 µM): 0.431; relative viability (HCC-827; first compound 500 µM): 0.48; relative viability (LK-2; first compound 5 µM): 0.189; relative viability (LK-2; first compound 15.81 µM): 0.19; relative viability (LK-2; first compound 50 µM): 0.18; relative viability (LK-2; first compound 158.11 µM): 0.161; relative viability (LK-2; first compound 500 µM): 0.128; relative viability (NCI-H1650; first compound 5 µM): 0.592; relative viability (NCI-H1650; first compound 15.81 µM): 0.566; relative viability (NCI-H1650; first compound 50 µM): 0.58; relative viability (NCI-H1650; first compound 158.11 µM): 0.14; relative viability (NCI-H1650; first compound 500 µM): 0.0159; relative viability (NCI-H1792; first compound 5 µM): 0.653; relative viability (NCI-H1792; first compound 15.81 µM): 0.65; relative viability (NCI-H1792; first compound 50 µM): 0.693; relative viability (NCI-H1792; first compound 158.11 µM): 0.666; relative viability (NCI-H1792; first compound 500 µM): 0.614; relative viability (SW 1573; first compound 5 µM): 0.592; relative viability (SW 1573; first compound 15.81 µM): 0.444; relative viability (SW 1573; first compound 50 µM): 0.498; relative viability (SW 1573; first compound 158.11 µM): 0.0962; relative viability (SW 1573; first compound 500 µM): 0.056; relative viability (LOU-NH91; first compound 5 µM): 0.703; relative viability (LOU-NH91; first compound 15.81 µM): 0.65; relative viability (LOU-NH91; first compound 50 µM): 0.703; relative viability (LOU-NH91; first compound 158.11 µM): 0.686; relative viability (LOU-NH91; first compound 500 µM): 0.672; relative viability (COR-L 105; first compound 5 µM): 0.605; relative viability (COR-L 105; first compound 15.81 µM): 0.407; relative viability (COR-L 105; first compound 50 µM): 0.49; relative viability (COR-L 105; first compound 158.11 µM): 0.319; relative viability (COR-L 105; first compound 500 µM): 0.105; relative viability (SK-MES-1; first compound 5 µM): 0.592; relative viability (SK-MES-1; first compound 15.81 µM): 0.526; relative viability (SK-MES-1; first compound 50 µM): 0.465; relative viability (SK-MES-1; first compound 158.11 µM): 0.12; relative viability (SK-MES-1; first compound 500 µM): 0.0545; relative viability (NCI-H2126; first compound 5 µM): 0.66; relative viability (NCI-H2126; first compound 15.81 µM): 0.643; relative viability (NCI-H2126; first compound 50 µM): 0.7; relative viability (NCI-H2126; first compound 158.11 µM): 0.448; relative viability (NCI-H2126; first compound 500 µM): 0.63; relative viability (LU99A; first compound 5 µM): 0.29; relative viability (LU99A; first compound 15.81 µM): 0.279; relative viability (LU99A; first compound 50 µM): 0.262; relative viability (LU99A; first compound 158.11 µM): 0.24; relative viability (LU99A; first compound 500 µM): 0.0972; relative viability (HCC-78; first compound 5 µM): 0.351; relative viability (HCC-78; first compound 15.81 µM): 0.377
